From PubChem BioAssay AID1963981 (Molecular Pharmacology Branch, DTP, NCI, 2024)
Where “and” joins values, the source holds several entries; their conditions need not be identical. Identical values can stand only once.

Tested on: 354836-022-R-J1-PDC multicell spheroid viability
Experiment: Anticancer human tumor 354836-022-R-J1-PDC patient-derived head and neck squamous cell carcinoma cell line growth inhibition [PI3K]
Details: for viability, T/C: stronger effect = lower value
In short: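 We assembled tumor spheroids that included a stromal compartment of HUVEC and MSCs, then exposed them to targeted agents alone and together with PI3K pathway inhibitors. Concentration series descended by half-log from clinically achievable Cmax levels. Viability served as the endpoint.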

[1] = curve of first compound, second compound 0.0316 µM
[2] = curve of first compound, second compound 0.1 µM
[3] = curve of first compound, second compound 0.316 µM
[4] = curve of first compound, second compound 1 µM
[5] = curve of first compound, second compound 3.16 µM
[6] = curve of first compound, second compound 10 µM
[7] = second compound 0.0316 µM, first compound 0.0316 µM
[8] = second compound 0.0316 µM, first compound 0.1 µM
[9] = second compound 0.1 µM, first compound 0.0316 µM
[10] = second compound 0.1 µM, first compound 0.1 µM
[11] = second compound 0.316 µM, first compound 0.0316 µM
[12] = second compound 0.316 µM, first compound 0.1 µM
[13] = second compound 1 µM, first compound 0.0316 µM
[14] = second compound 1 µM, first compound 0.1 µM
[15] = second compound 3.16 µM, first compound 0.0316 µM
[16] = second compound 3.16 µM, first compound 0.1 µM
[17] = second compound 10 µM, first compound 0.0316 µM
[18] = second compound 10 µM, first compound 0.1 µM
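Further: spheroids exposed to agents for seven days before the viability read.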

In the case of Cn1ncnc1[C@H]1c2n[nH]c(=O)c3cc(F)cc(c23)N[C@@H]1c1ccc(F)cc1 + Cc1nc(NC(=O)N2CCCC2C(N)=O)sc1-c1ccnc(C(C)(C)C(F)(F)F)c1, the IC50 [1] is reported as > 0.1 µM, the IC50 [2] is reported as > 0.1 µM and the IC50 [3] is reported as > 0.1 µM. For the same compound, the IC50 [4] was > 0.1 µM, the IC50 [5] was > 0.1 µM and the IC50 [6] was < 0.000316 µM. The viability, T/C (second compound 0.0316 µM, first compound 0.000316 µM) was 115%, the viability, T/C (second compound 0.0316 µM, first compound 0.001 µM) was 90.7% and the viability, T/C (second compound 0.0316 µM, first compound 0.00316 µM) was 107%. For the same compound, the viability, T/C (second compound 0.0316 µM, first compound 0.01 µM) was 98.4%, the viability, T/C [7] was 105% and the viability, T/C [8] was 88.3%. It also gave a viability, T/C (second compound 0.1 µM, first compound 0.000316 µM) of 93.6%, a viability, T/C (second compound 0.1 µM, first compound 0.001 µM) of 88.7% and a viability, T/C (second compound 0.1 µM, first compound 0.00316 µM) of 98%. For the same compound, the viability, T/C (second compound 0.1 µM, first compound 0.01 µM) was 93%, the viability, T/C [9] was 98.5% and the viability, T/C [10] was 94%. It also gave a viability, T/C (second compound 0.316 µM, first compound 0.000316 µM) of 85%, a viability, T/C (second compound 0.316 µM, first compound 0.001 µM) of 103% and a viability, T/C (second compound 0.316 µM, first compound 0.00316 µM) of 99.5%. For the same compound, the viability, T/C (second compound 0.316 µM, first compound 0.01 µM) was 95.8%, the viability, T/C [11] was 81.4% and the viability, T/C [12] was 89.9%. It also gave a viability, T/C (second compound 1 µM, first compound 0.000316 µM) of 80.8%, a viability, T/C (second compound 1 µM, first compound 0.001 µM) of 85.3% and a viability, T/C (second compound 1 µM, first compound 0.00316 µM) of 83.3%. The viability, T/C (second compound 1 µM, first compound 0.01 µM) was 86.6%, the viability, T/C [13] was 85.3% and the viability, T/C [14] was 77.3%. For the same compound, the viability, T/C (second compound 3.16 µM, first compound 0.000316 µM) was 58.2%, the viability, T/C (second compound 3.16 µM, first compound 0.001 µM) was 70.1% and the viability, T/C (second compound 3.16 µM, first compound 0.00316 µM) was 62.8%. For the same compound, the viability, T/C (second compound 3.16 µM, first compound 0.01 µM) was 67.3%, the viability, T/C [15] was 59.3% and the viability, T/C [16] was 62.2%. It also gave a viability, T/C (second compound 10 µM, first compound 0.000316 µM) of 39.7%, a viability, T/C (second compound 10 µM, first compound 0.001 µM) of 38.9% and a viability, T/C (second compound 10 µM, first compound 0.00316 µM) of 43.4%. For the same compound, the viability, T/C (second compound 10 µM, first compound 0.01 µM) was 45.5%, the viability, T/C [17] was 31.1% and the viability, T/C [18] was 30.3%.

CCCS(=O)(=O)Nc1ccc(F)c(C(=O)c2c[nH]c3ncc(-c4ccc(Cl)cc4)cc23)c1F + CC(Nc1ncnc2nc[nH]c12)c1cc2cccc(Cl)c2c(=O)n1-c1ccccc1 was tested, and the IC50 [1] was 5.95 µM, the IC50 [2] was 5.79 µM and the IC50 [3] was 6.71 µM. It also gave an IC50 [4] of 5.5 µM, an IC50 [5] of 6.29 µM and an IC50 [6] of 5.98 µM. For the same compound, the viability, T/C [7] was 94.8%, the viability, T/C [8] was 108% and the viability, T/C (second compound 0.0316 µM, first compound 0.316 µM) was 98.4%. The viability, T/C (second compound 0.0316 µM, first compound 1 µM) was 107%, the viability, T/C (second compound 0.0316 µM, first compound 3.16 µM) was 88.8% and the viability, T/C (second compound 0.0316 µM, first compound 10 µM) was 17.8%. The viability, T/C [9] was 99.8%, the viability, T/C [10] was 99.8% and the viability, T/C (second compound 0.1 µM, first compound 0.316 µM) was 109%. It also gave a viability, T/C (second compound 0.1 µM, first compound 1 µM) of 105%, a viability, T/C (second compound 0.1 µM, first compound 3.16 µM) of 83.8% and a viability, T/C (second compound 0.1 µM, first compound 10 µM) of 19.7%. For the same compound, the viability, T/C [11] was 98%, the viability, T/C [12] was 106% and the viability, T/C (second compound 0.316 µM, first compound 0.316 µM) was 125%. For the same compound, the viability, T/C (second compound 0.316 µM, first compound 1 µM) was 104%, the viability, T/C (second compound 0.316 µM, first compound 3.16 µM) was 110% and the viability, T/C (second compound 0.316 µM, first compound 10 µM) was 18.9%. The viability, T/C [13] was 103%, the viability, T/C [14] was 93.9% and the viability, T/C (second compound 1 µM, first compound 0.316 µM) was 111%. For the same compound, the viability, T/C (second compound 1 µM, first compound 1 µM) was 94.5%, the viability, T/C (second compound 1 µM, first compound 3.16 µM) was 81.1% and the viability, T/C (second compound 1 µM, first compound 10 µM) was 16.6%. For the same compound, the viability, T/C [15] was 114%, the viability, T/C [16] was 111% and the viability, T/C (second compound 3.16 µM, first compound 0.316 µM) was 105%. For the same compound, the viability, T/C (second compound 3.16 µM, first compound 1 µM) was 106%, the viability, T/C (second compound 3.16 µM, first compound 3.16 µM) was 92.9% and the viability, T/C (second compound 3.16 µM, first compound 10 µM) was 21.1%. For the same compound, the viability, T/C [17] was 89.7%, the viability, T/C [18] was 96% and the viability, T/C (second compound 10 µM, first compound 0.316 µM) was 94.2%. It also gave a viability, T/C (second compound 10 µM, first compound 1 µM) of 88.7%, a viability, T/C (second compound 10 µM, first compound 3.16 µM) of 92.6% and a viability, T/C (second compound 10 µM, first compound 10 µM) of 16%.

For CC(=O)c1c(C)c2cnc(Nc3ccc(N4CCNCC4)cn3)nc2n(C2CCCC2)c1=O, the viability, T/C (compound 0.000316 µM) was 105% (2×) and 101% and 106%, the viability, T/C (compound 0.001 µM) was 104% [middle of 4 runs] and the viability, T/C (compound 0.00316 µM) was 105% [middle of 4 runs]. For the same compound, the viability, T/C (compound 0.01 µM) was 102% [middle of 4 runs], the viability, T/C (compound 0.0316 µM) was 103% [middle of 4 runs] and the viability, T/C (compound 0.1 µM) was 104% [middle of 4 runs]. For the same compound, the IC50 (curve of compound) was > 0.1 µM.
